Calls of active or inactive are those of the source. The calls are words filed in the database; no cut-off is given here.
Columns and labels:
[1] = Neurogenesis in TOPRO+ mouse neural stem cells at 8 uM after 24 hrs relative to control
[2] = Neurogenesis in GFAP+ mouse neural stem cells at 8 uM after 24 hrs relative to control
[3] = Neurogenesis in TUJ+MAP2+ mouse neural stem cells at 8 uM for 24 hrs relative to control
Neural stem cell [4] = assay: Decrease in number of neurons in TUJ/MAP2+ mouse neural stem cells at 15 uM
Neural stem cell [5] = assay: Inhibition of calcium induced neurogenesis in mouse neural stem cells in presence of 10 uM nifedipine
Neural stem cell [6] = assay: Increase in calcium concentration in mouse neural stem cells at 5 uM assessed as […] ratio F350/F380; conditions: TDE = time-dependent effect
[7] = Neurogenesis of TUJ/MAP2+ mouse neural stem cells at 8 uM assessed as calcium influx relative to control
Neural stem cell [8] = assay: Decrease in number of neurons in TUJ/MAP2+ mouse neural stem cells at 8 uM after 72 hrs
Neural stem cell [9] = assay: Neuronal differentiation in TUJ/MAP2+ EGF responsive mouse neural stem cells at 1 to 8 uM after 72 hrs
[10] = Neurogenesis of TUJ/MAP2+ mouse neural stem cells at 8 uM in presence of 5 uM nifedipine assessed as calcium influx relative to control
Neural stem cell [11] = assay: Neurogenesis of TUJ/MAP2+ mouse neural stem cells at 8 uM afte 12, 24, 48 hrs
[12] = Neurogenesis in GFAP+ mouse neural stem cells at 1 uM relative to control
[13] = Neurogenesis in TUJ+MAP2+ mouse neural stem cells at 1 uM relative to control
[14] = Neurogenesis in TOPRO+ mouse neural stem cells at 1 uM relative to control

Structure (SMILES) | Activity [1] [%] | Activity [2] [%] | Activity [3] [%] | Activity (Neural stem cell [4]) | Activity (Neural stem cell [5]) | Activity (Neural stem cell [6]) | Activity [7] [%] | Activity (Neural stem cell [8]) | Activity (Neural stem cell [9]) | Activity [10] [%] | Activity (Neural stem cell [11]) | Activity [12] [%] | Activity [13] [%] | Activity [14] [%]
CC(C)=CCC[C@](C)(O)[C@H]1CC[C@]2(C)[C@@H]1[C@H](O)C[C@@H]1[C@@]3(C)CC[C@H](O[C@@H]4O[C@H](CO)[C@@H](O)[C@H](O)[C@H]4O[C@@H]4O[C@H](CO)[C@@H](O)[C@H](O)[C@H]4O)C(C)(C)[C@@H]3CC[C@]12C | 140 | 35.9 | 16.1 |  |  |  |  |  |  |  |  |  |  | 
CC(C)=CC/C=C(\C)[C@H]1CC[C@]2(C)[C@@H]1[C@H](O)C[C@@H]1[C@@]3(C)CC[C@H](O[C@@H]4O[C@H](CO)[C@@H](O)[C@H](O)[C@H]4O[C@@H]4O[C@H](CO)[C@@H](O)[C@H](O)[C@H]4O)C(C)(C)[C@@H]3CC[C@]12C [GINSENOSIDE RG5] | 132 | 25.2 | 30.5 | Active | Active | tde | 29.6 | Active | Active | 4 | Active |  |  | 
C=C(CCC=C(C)C)[C@H]1CC[C@]2(C)[C@@H]1[C@H](O)C[C@@H]1[C@@]3(C)CC[C@H](O[C@@H]4O[C@H](CO)[C@@H](O)[C@H](O)[C@H]4O[C@@H]4O[C@H](CO)[C@@H](O)[C@H](O)[C@H]4O)C(C)(C)[C@@H]3CC[C@]12C [GISENOSIDE RK1] | 107 | 28.8 | 28.4 |  |  |  |  |  |  |  |  |  |  | 
CC1=C(/C=C/C(C)=C/C=C/C(C)=C/C(=O)O)C(C)(C)CCC1 [TRETINOIN] |  |  |  |  |  |  |  |  |  |  |  | 36.3 | 16.5 | 148
